Earlier results, collected in PubChem BioAssay AID1259409 (Chemical Carcinogenesis Research Information System (CCRIS), 2018).

Test system: rodent chemically induced tumor inhibition, incidence and multiplicity
Assay: CCRIS tumor inhibitor studies
Conditions: Dose [Inhibitor]: 0, Route [Inhibitor]: ORAL, Species: RAT, Promoter: NONE USED

CCOC1=C(O)C(=O)O[C@@H]1[C@@H](O)CO
tumour outcome (control, treated, inhibition, significance) (Carcinogen: 2-AMINO-1-METHYL-6-PHENYLIMIDAZO[4,5-B]PYRIDINE, 105650-23-5, 1% IN DIET FOR 52 WK CONCURRENTLY WITH CARCINOGEN TREATMENT (STUDY DURATION: 52 WK), Strain/Sex: F344/FEMALE, Target Tissue: Type of Lesion: LARGE INTESTINE: ADENOMA OR CARCINOMA, Dose [Carcinogen]: 0.02% IN DIET FOR 52 WK): 2/18 (11%), 3/18 (17%), -55%, not significant
tumour outcome (control, treated, inhibition, significance) (Carcinogen: 2-AMINO-1-METHYL-6-PHENYLIMIDAZO[4,5-B]PYRIDINE, 105650-23-5, 1% IN DIET FOR 52 WK CONCURRENTLY WITH CARCINOGEN TREATMENT (STUDY DURATION: 52 WK), Strain/Sex: F344/FEMALE, Target Tissue: Type of Lesion: MAMMARY GLAND: ADENOCARCINOMA, Dose [Carcinogen]: 0.02% IN DIET FOR 52 WK): 8/20 (40%), 6/21 (29%), 28%, not significant
tumour outcome (control, treated, inhibition, significance) (Carcinogen: DIETHYLNITROSAMINE, 55-18-5, N-METHYL-N-NITROSAUREA, 684-93-5, N-BUTYL-N-(4-HYDROXYBUTYL)NITROSAMINE, 3817-11-6, DIMETHY, Carcinogen: DIETHYLNITROSAMINE, 55-18-5, N-METHYL-N-NITROSAUREA, 684-93-5, N-BUTYL-N-(4-HYDROXYBUTYL)NITROSAMINE, 3817-11-6, DIMETHY, 1% IN THE DIET FOR 24 WK BEGINNING 1 DAY POST CARCINOGEN TREATMENT (STUDY DURATION: 28 WK), Strain/Sex: F344/MALE, Target Tissue: Type of Lesion: SMALL INTESTINE: ADENOMA, Dose [Carcinogen]: 100 MG/KG BW DEN ONCE FOLLOWED BY 20 MG/KG BW MNU 4 TIMES AND 0.05% BBN IN DRINKING WATER DURING FIRST 2 WK THEN 40 MG/K): 33%, 13%, 60%, not significant
tumour outcome (control, treated, inhibition, significance) (Carcinogen: DIETHYLNITROSAMINE, 55-18-5, N-METHYL-N-NITROSOUREA, 684-93-4, N-BUTYL-N-(4-HYDROXYBUTYL)NITROSAMINE, 3817-11-6, DIMETHY, Carcinogen: DIETHYLNITROSAMINE, 55-18-5, N-METHYL-N-NITROSOUREA, 684-93-4, N-BUTYL-N-(4-HYDROXYBUTYL)NITROSAMINE, 3817-11-6, DIMETHY, 1% IN THE DIET FOR 24 WK BEGINNING 1 DAY POST CARCINOGEN TREATMENT (STUDY DURATION: 28 WK), Strain/Sex: F344/MALE, Target Tissue: Type of Lesion: URINARY BLADDER: CARCINOMA, Dose [Carcinogen]: 100 MG/KG BW DEN ONCE FOLLOWED BY 20 MG/KG BW MNU 4 TIMES AND 0.05% BBN IN DRINKING WATER DURING FIRST 2 WK THEN 40 MG/K): 7%, 0%, 100%, not significant
tumour outcome (control, treated, inhibition, significance) (Carcinogen: DIETHYLNITROSAMINE, 55-18-5, N-METHYL-N-NITROSOUREA, 684-93-5, N-BUTYL-N-(4-HYDROXYBUTYL)NITROSAMINE, 3817-11-6, DIMETHY, Carcinogen: DIETHYLNITROSAMINE, 55-18-5, N-METHYL-N-NITROSOUREA, 684-93-5, N-BUTYL-N-(4-HYDROXYBUTYL)NITROSAMINE, 3817-11-6, DIMETHY, 1% IN DIET FOR 24 WK BEGINNING 1 DAY POST CARCINOGEN TREATMENT (STUDY DURATION: 28 WK), Strain/Sex: F344/MALE, Target Tissue: Type of Lesion: THYROID: CARCINOMA, Dose [Carcinogen]: 100 MG/KG BW DEN ONCE FOLLOWED BY 20 MG/KG BW MNU 4 TIMES AND 0.05% BBN IN DRINKING WATER DURING FIRST 2 WK THEN 40 MG/K): 7%, 0%, 100%, not significant
tumour outcome (control, treated, inhibition, significance) (Carcinogen: DIETHYLNITROSAMINE, 55-18-5, N-METHYL-N-NITROSOUREA, 684-93-5, N-BUTYL-N-(4-HYDROXYBUTYL)NITROSAMINE, 3817-11-6, DIMETHY, Carcinogen: DIETHYLNITROSAMINE, 55-18-5, N-METHYL-N-NITROSOUREA, 684-93-5, N-BUTYL-N-(4-HYDROXYBUTYL)NITROSAMINE, 3817-11-6, DIMETHY, 1% IN DIET FOR 30 DAYS BEGINNING 1 DAY PRIOR TO CARCINOGEN TREATMENT (STUDY DURATION: 28 WK), Strain/Sex: F344/MALE, Target Tissue: Type of Lesion: URINARY BLADDER: PAPILLOMA, Dose [Carcinogen]: 100 MG/KG BW DEN ONCE FOLLOWED BY 20 MG/KG BW MNU 4 TIMES AND 0.05% BBN IN DRINKING WATER DURING FIRST 2 WK THEN 40 MG/K): 7%, 7%, 0%, not significant
tumour outcome (control, treated, inhibition, significance) (Carcinogen: DIETHYLNITROSAMINE, 55-18-5, N-METHYL-N-NITROSOUREA, 684-93-5, N-BUTYL-N-(4-HYDROXYBUTYL)NITROSAMINE, 3817-11-6, DIMETHY, Carcinogen: DIETHYLNITROSAMINE, 55-18-5, N-METHYL-N-NITROSOUREA, 684-93-5, N-BUTYL-N-(4-HYDROXYBUTYL)NITROSAMINE, 3817-11-6, DIMETHY, 1% IN THE DIET FOR 24 WK BEGINNING 1 DAY POST CARCINOGEN TREATMENT ( STUDY DURATION: 28 WK), Strain/Sex: F344/MALE, Target Tissue: Type of Lesion: LARGE INTESTINE: CARCINOMA, Dose [Carcinogen]: 100 MG/KG BW DEN ONCE FOLLOWED BY 20 MG/KG BW MNU 4 TIMES AND 0.05% BBN IN DRINKING WATER DURING FIRST 2 WK THEN 40 MG/K): 7%, 13%, -86%, not significant
tumour outcome (control, treated, inhibition, significance) (Carcinogen: DIETHYLNITROSAMINE, 55-18-5, N-METHYL-N-NITROSOUREA, 684-93-5, N-BUTYL-N-(4-HYDROXYBUTYL)NITROSAMINE, 3817-11-6, DIMETHY, Carcinogen: DIETHYLNITROSAMINE, 55-18-5, N-METHYL-N-NITROSOUREA, 684-93-5, N-BUTYL-N-(4-HYDROXYBUTYL)NITROSAMINE, 3817-11-6, DIMETHY, 1% IN THE DIET FOR 24 WK BEGINNING 1 DAY POST CARCINOGEN TREATMENT (STUDY DURATION: 28 WK), Strain/Sex: F344/MALE, Target Tissue: Type of Lesion: LARGE INTESTINE: ADENOMA, Dose [Carcinogen]: 100 MG/KG BW DEN ONCE FOLLOWED BY 20 MG/KG BW MNU 4 TIMES AND 0.05% BBN IN DRINKING WATER DURING FIRST 2 WK THEN 40 MG/K): 27%, 47%, -74%, not significant
